From ChEMBL document CHEMBL1201862, “PubChem BioAssay data set” (2004)
Active and inactive are the calls of the source.

Columns and labels:
[1] = alpha-synuclein stem-loop translation blockers – luminescence, H4 neuroglioblastoma cells, dose confirmation, confirmation (AID 2454); type: functional, cell-based;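 further: H4 neuroglioblastoma cells carrying an alpha-synuclein 5'UTR luciferase reporter; potency for inhibition of the luciferase signal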
[2] = alpha-synuclein stem-loop luciferase translation blockers – H4 neuroglioma cells, luminescence, confirmation (AID 1988); type: functional, cell-based
cells = type: functional, cell-based
[3] = Luminescence Cell-Based Dose Response HTS to Identify Activators of 5'UTR Stem-Loop Driven Prion Protein mRNA Translation in H4-C Neuroglioblastoma Cells. [Related pubchem assays: 1829 (Project Summary), 1814 (Primary HTS)]; type: functional
[4] = Luminescence Cell-Based Dose Response HTS to Identify Inhibitors of 5'UTR Stem-Loop Driven Prion Protein mRNA Translation in H4 Neuroglioblastoma Cells. [Related pubchem assays: 1827 (Project Summary), 1813 (Primary HTS)]; type: functional
[5] = Luminescence Cell-Based Dose Response HTS to Identify Inhibitors of Luciferase Translation or Activity in H4-C Neuroglioblastoma Cells. [Related pubchem assays: 1813 (Primary HTS), 1827 (Project Summary)]; type: functional
[6] = luciferase reporter signal reduction – luminescence, H4-C neuroglioblastoma cells, dose response (AID 2458); type: functional, cell-based;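 further: H4 neuroglioblastoma cells stably carrying a luciferase reporter gene fusion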
[7] = Luminescence Cell-Based Dose Response HTS to Identify Activators of Luciferase Translation or Activity in H4-C Neuroglioblastoma Cells. [Related pubchem assays: 1829 (Project Summary), 1814 (Primary HTS)]; type: functional
[8] = Luminescence Cell-Based Dose Confirmation HTS to Identify Inhibitors of 5'UTR Stem-Loop Driven Alpha-Synuclein mRNA Translation in H4 Neuroglioblastoma Cells. [Related pubchem assays: 1827 (Project Summary), 1813 (Primary HTS)]; type: functional
[9] = Luminescence Cell-Based Dose Retest to Confirm Activators of 5'UTR Stem-Loop Driven Alpha-Synuclein mRNA Translation in H4 Neuroglioblastoma Cells. [Related pubchem assays (depositor defined):AID1813, AID1829]; type: functional
[10] = HEK-293T viability loss after treatment – luminescence, T-cell screen hits, cytotoxicity control for TCR NF-kB inhibitor project, dose response (AID 489026); type: functional, cell-based;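 further: cells exposed to compound about 14 hours before the viability readout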
[11] = luciferase reporter signal suppression in cells – H4 neuroglioma cells, luminescence, dose response (AID 1990); type: functional, cell-based
[12] = Luminescence Cell-Based Dose HTS Response to Identify Inhibitors of 5'UTR Stem-Loop Driven Prion Protein mRNA Translation in H4-C Neuroglioblastoma Cells. [Related pubchem assays (depositor defined):AID1814, AID1827]; type: functional
[13] = target: T1, Tyrosine-protein phosphatase non-receptor type 7 (Homo sapiens, UniProt P35236); experiment: inhibition of hematopoietic tyrosine phosphatase HePTP – biochemical, set 2, SAR follow-up (AID 449736); type: functional
T1 sequence (P35236 whole entry): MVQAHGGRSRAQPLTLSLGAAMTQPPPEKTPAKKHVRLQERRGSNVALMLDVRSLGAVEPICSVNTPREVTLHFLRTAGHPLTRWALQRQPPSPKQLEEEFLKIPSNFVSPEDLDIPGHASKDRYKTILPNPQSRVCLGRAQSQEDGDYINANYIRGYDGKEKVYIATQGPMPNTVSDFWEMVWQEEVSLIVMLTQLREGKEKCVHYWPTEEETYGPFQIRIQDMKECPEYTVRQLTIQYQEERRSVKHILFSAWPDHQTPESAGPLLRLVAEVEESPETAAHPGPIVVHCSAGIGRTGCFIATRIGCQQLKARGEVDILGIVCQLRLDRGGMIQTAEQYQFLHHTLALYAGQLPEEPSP

[14] = target: T2, Calpain-2 catalytic subunit (Sus scrofa, UniProt P43367); experiment: m-calpain protease blockers, concentration series – biochemical, fluorogenic peptide substrate, dose response (AID 1420); type: functional
T2 sequence (P43367 whole entry): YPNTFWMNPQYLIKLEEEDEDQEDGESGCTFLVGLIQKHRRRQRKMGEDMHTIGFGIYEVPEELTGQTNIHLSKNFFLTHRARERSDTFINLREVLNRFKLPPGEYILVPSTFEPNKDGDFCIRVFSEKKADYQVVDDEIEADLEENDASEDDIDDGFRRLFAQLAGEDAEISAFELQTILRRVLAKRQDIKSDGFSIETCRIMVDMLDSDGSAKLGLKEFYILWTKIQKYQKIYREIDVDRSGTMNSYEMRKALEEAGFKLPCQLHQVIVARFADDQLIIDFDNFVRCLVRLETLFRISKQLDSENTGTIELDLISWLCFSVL

[15] = target: T3, G-protein coupled receptor 35 (Homo sapiens, UniProt Q9HC97); experiment: SAR analysis of Agonists of the GPR35 Receptor using an Image-Based Assay - Set 2. [Related pubchem assays (depositor defined):AID2013, AID2026]; type: functional
T3 sequence (Q9HC97 whole entry): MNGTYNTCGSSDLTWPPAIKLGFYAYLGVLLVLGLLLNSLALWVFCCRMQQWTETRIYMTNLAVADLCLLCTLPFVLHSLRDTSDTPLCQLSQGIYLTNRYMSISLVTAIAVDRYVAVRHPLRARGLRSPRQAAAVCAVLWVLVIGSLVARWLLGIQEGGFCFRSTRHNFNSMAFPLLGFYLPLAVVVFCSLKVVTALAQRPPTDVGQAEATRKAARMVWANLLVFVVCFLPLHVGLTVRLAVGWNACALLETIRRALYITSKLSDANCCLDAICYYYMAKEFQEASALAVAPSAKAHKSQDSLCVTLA

[16] = target: T4, G-protein coupled receptor 55 (Homo sapiens, UniProt Q9Y2T6); experiment: inhibition of LPI-stimulated GPR55 beta-arrestin translocation – imaging, U2OS, beta-arrestin-GFP, LPI agonist, primary screen (AID 2013); type: functional;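 further: antagonist potency measured as reduced agonist-driven arrestin aggregation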
T4 sequence (Q9Y2T6 whole entry): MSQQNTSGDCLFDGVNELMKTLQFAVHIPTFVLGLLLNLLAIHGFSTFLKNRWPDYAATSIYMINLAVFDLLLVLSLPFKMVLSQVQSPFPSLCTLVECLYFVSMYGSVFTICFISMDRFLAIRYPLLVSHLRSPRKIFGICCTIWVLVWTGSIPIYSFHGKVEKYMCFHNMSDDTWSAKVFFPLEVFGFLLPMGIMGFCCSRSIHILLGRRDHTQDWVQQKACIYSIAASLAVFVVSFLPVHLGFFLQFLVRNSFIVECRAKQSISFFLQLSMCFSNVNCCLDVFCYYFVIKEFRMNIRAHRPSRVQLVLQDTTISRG

[17] = target: T5, Probable nicotinate-nucleotide adenylyltransferase (Staphylococcus aureus (strain N315), UniProt P65502); type: functional, Staphylococcus aureus subsp. aureus N315; settings: read-out: IC50_Mean;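 on IC50 Mean: confirmatory dose-response retesting of NadD inhibitor hits first found in an ultra-high-throughput screen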
T5 sequence (P65502 whole entry): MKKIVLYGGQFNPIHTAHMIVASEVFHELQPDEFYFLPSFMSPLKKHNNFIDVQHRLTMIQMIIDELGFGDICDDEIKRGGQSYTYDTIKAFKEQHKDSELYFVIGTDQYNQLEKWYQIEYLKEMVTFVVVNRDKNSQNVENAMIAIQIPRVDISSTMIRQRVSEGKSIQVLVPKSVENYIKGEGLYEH

[18] = target: T3, G-protein coupled receptor 35; experiment: SAR analysis of Antagonists of the GPR35 Receptor using an Image-Based Assay - Set 3. [Related pubchem assays (depositor defined):AID2013, AID2026]; type: functional
Cannabinoid receptor 1 [19] = target: T6, Cannabinoid receptor 1 (Homo sapiens, UniProt P21554); experiment: SAR analysis of antagonists of the Cannabinoid Receptor 1 using an Image-Based Assay - Set 2. [Related pubchem assays (depositor defined):AID2013, AID2026]; type: functional
T6 sequence (P21554 whole entry): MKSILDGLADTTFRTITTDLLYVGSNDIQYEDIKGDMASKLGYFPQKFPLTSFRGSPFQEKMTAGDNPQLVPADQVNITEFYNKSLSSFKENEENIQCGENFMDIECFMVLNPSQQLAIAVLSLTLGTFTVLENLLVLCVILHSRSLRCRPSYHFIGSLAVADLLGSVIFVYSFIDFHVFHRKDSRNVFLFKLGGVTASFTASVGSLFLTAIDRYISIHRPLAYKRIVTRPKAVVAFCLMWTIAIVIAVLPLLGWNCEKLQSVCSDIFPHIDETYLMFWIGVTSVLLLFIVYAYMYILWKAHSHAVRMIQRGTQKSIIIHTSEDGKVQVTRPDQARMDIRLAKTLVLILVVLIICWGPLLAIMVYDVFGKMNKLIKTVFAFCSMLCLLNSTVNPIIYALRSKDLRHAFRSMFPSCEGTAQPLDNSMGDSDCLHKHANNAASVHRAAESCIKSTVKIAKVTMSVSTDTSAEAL

Cannabinoid receptor 2 [20] = target: T7, Cannabinoid receptor 2 (Homo sapiens, UniProt P34972); experiment: SAR analysis of antagonists of the Cannabinoid Receptor 2 using an Image-Based Assay. [Related pubchem assays (depositor defined):AID2013, AID2026]; type: functional
T7 sequence (P34972 whole entry): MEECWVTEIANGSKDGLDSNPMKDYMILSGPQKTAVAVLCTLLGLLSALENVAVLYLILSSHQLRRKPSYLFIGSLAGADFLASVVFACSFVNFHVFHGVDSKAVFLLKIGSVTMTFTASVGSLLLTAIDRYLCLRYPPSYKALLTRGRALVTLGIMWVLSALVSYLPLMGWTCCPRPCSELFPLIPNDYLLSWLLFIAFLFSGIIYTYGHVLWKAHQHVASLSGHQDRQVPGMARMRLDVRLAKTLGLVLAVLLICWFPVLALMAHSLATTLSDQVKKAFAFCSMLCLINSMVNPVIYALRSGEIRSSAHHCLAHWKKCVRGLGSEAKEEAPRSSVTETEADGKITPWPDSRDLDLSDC

[21] = target: T4, G-protein coupled receptor 55; experiment: blockade of LPI-induced GPR55 arrestin translocation – imaging, U2OS, beta-arrestin-GFP, LPI agonist, set 2, SAR follow-up (AID 2820); type: functional
[22] = target: T5, Probable nicotinate-nucleotide adenylyltransferase; type: functional, Staphylococcus aureus subsp. aureus N315
Cannabinoid receptor 1 [23] = target: T6, Cannabinoid receptor 1; experiment: SAR analysis of agonists of the Cannabinoid Receptor 1 using an Image-Based Assay - Set 2. [Related pubchem assays (depositor defined):AID2013, AID2026]; type: functional
Cannabinoid receptor 2 [24] = target: T7, Cannabinoid receptor 2; experiment: SAR analysis of agonists of the Cannabinoid Receptor 2 using an Image-Based Assay. [Related pubchem assays (depositor defined):AID2013, AID2026]; type: functional
[25] = target: Voltage-dependent T-type calcium channel subunit alpha-1H (Homo sapiens, UniProt O95180); experiment: human CACNA1H calcium influx blockade – cell-based, synthetic library set 2, HEK293 HH8, Fluo-4, SAR follow-up (AID 493023); type: functional
Chain of Voltage-dependent T-type calcium channel subunit alpha-1H (O95180 whole entry): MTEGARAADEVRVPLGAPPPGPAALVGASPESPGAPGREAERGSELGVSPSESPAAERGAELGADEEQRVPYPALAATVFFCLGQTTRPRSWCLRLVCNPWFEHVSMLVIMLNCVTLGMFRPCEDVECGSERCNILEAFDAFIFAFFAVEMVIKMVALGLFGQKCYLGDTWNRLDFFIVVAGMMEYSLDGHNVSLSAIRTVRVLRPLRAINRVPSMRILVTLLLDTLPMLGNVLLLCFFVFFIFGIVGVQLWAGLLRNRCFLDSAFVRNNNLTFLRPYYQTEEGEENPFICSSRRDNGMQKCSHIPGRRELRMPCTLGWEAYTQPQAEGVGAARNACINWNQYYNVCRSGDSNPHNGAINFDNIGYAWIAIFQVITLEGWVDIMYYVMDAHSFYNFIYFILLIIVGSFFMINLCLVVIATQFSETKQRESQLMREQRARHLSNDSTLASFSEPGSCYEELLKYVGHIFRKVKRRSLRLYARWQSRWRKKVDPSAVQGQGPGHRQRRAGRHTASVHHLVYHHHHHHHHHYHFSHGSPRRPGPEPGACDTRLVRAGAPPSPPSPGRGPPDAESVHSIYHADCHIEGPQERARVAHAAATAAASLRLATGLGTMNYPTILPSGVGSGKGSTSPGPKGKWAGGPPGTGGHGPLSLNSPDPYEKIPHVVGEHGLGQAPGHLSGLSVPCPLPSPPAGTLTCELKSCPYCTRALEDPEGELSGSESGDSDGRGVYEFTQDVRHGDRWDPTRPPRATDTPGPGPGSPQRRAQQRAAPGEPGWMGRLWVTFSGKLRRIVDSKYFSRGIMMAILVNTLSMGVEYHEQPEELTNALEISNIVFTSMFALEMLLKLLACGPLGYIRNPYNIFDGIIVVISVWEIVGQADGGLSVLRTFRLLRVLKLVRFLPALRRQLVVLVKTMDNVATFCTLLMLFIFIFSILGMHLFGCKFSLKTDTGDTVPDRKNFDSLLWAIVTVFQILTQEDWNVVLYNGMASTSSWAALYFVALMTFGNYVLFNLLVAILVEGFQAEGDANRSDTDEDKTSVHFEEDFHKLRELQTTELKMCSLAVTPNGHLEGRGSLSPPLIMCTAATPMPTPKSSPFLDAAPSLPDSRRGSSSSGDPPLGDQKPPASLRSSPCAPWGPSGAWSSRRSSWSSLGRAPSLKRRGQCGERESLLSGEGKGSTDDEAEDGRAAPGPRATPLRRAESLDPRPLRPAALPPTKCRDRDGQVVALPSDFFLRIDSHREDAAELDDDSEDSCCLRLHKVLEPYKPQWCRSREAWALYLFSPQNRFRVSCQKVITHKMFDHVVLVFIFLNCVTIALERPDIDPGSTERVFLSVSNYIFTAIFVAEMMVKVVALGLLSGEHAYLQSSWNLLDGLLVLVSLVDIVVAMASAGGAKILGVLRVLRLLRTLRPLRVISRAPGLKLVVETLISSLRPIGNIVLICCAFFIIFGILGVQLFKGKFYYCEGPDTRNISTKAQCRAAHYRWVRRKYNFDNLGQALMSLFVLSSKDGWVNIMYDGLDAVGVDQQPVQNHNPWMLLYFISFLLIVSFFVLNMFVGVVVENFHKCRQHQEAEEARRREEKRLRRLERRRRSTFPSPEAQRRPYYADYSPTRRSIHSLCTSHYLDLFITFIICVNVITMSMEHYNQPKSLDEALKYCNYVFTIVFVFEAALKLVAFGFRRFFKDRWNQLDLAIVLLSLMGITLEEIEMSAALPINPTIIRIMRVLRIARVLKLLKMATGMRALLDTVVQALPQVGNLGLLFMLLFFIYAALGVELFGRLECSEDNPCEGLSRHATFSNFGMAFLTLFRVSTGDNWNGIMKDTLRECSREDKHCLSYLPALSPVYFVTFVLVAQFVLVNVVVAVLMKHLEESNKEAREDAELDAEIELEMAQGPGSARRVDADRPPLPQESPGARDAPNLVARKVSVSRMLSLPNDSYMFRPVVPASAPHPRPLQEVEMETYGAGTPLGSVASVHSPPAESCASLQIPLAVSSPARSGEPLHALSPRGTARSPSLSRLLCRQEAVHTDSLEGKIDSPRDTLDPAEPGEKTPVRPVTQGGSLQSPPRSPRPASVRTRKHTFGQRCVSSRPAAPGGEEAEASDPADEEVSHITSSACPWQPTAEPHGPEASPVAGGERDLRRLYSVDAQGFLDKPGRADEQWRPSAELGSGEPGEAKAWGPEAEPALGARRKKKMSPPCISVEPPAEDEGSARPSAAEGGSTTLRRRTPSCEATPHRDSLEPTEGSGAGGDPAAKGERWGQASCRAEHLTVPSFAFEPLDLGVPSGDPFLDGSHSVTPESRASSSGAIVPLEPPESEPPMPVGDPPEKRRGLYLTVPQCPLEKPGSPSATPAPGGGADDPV

CCOC(=O)COc1cccc2c(=O)n(CC(=O)NCc3ccc(F)cc3)ccc12
EC50 [1]: 1.51 µM (active) | EC50 [2]: < 0.1 µM (active) | EC50 (cells): 2.36 µM (active) | EC50 [3]: 22.4 µM (inconclusive) | EC50 [4]: > 120 µM (not active) | EC50 [5]: 1.36 µM (active) | EC50 [6]: > 12 µM (inconclusive) | EC50 [7]: 1.36 µM (inconclusive) | EC50 [8]: 26.6 µM (active) | EC50 [9]: 26.6 µM (inconclusive) | IC50 [10]: > 80 µM (inactive) | EC50 [11]: 12.6 µM (active) | EC50 [12]: 22.4 µM (active)

Cc1ccc(-n2c(N)c(C(=O)Nc3ccccc3F)sc2=S)cc1C
IC50 [13]: 50.5 µM (active)

Cc1cc(C)c2nc(-c3cccnc3)cc(C(=O)Nc3ccc(S(=O)(=O)Nc4onc(C)c4C)cc3)c2c1
IC50 [14]: > 50 µM (not active) | EC50 [15]: > 32 µM (inactive) | IC50 [16]: 1.55 µM (active) | IC50 [17]: 12.5 µM (active) | IC50 [18]: > 32 µM (inactive) | IC50 (Cannabinoid receptor 1 [19]): > 32 µM (inactive) | IC50 (Cannabinoid receptor 2 [20]): > 32 µM (inactive) | IC50 [21]: 0.457 µM (active) | IC50 [22]: 3.76 µM (active) | EC50 (Cannabinoid receptor 1 [23]): > 32 µM (inactive) | EC50 (Cannabinoid receptor 2 [24]): > 32 µM (inactive)

CC(C)(C)CCN1CCC[C@@H](NC(=O)COc2ccccc2Cl)C1
EC50 [25]: 10 µM (active)
